Test results as given in the supplement of paper PMC13380429.

Assays:
Settings in all cases: 72 h
Caco-2 [1] = experiment: relative viability EC50 (midpoint between 100% and the lowest measured viability); higher = less toxic
HepG2 [2] = experiment: as above
Vero E6 [3] = experiment: as above
U2OS [4] = experiment: as above
Calu-3 [5] = experiment: as above
Caco-2 [6] = experiment: drug sensitivity score (DSS) for viability; higher = more toxic; extreme values may be limits of the assay
HepG2 [7] = experiment: as above
Vero E6 [8] = experiment: as above
U2OS [9] = experiment: as above
Calu-3 [10] = experiment: as above
Caco-2 [11] = experiment: cell viability relative to DMSO; higher = less toxic
HepG2 [12] = experiment: as above
Vero E6 [13] = experiment: as above
U2OS [14] = experiment: as above
Calu-3 [15] = experiment: as above

Structure (SMILES) | relative viability EC50 (Caco-2 [1]) [µM] | relative viability EC50 (HepG2 [2]) [µM] | relative viability EC50 (Vero E6 [3]) [µM] | relative viability EC50 (U2OS [4]) [µM] | relative viability EC50 (Calu-3 [5]) [µM] | drug sensitivity score (Caco-2 [6]) | drug sensitivity score (HepG2 [7]) | drug sensitivity score (Vero E6 [8]) | drug sensitivity score (U2OS [9]) | drug sensitivity score (Calu-3 [10]) | cell viability (Caco-2 [11]; 1 nM) [%] | cell viability (Caco-2 [11]; 10 nM) [%] | cell viability (Caco-2 [11]; 100 nM) [%] | cell viability (Caco-2 [11]; 1000 nM) [%] | cell viability (Caco-2 [11]; 10000 nM) [%] | cell viability (HepG2 [12]; 1 nM) [%] | cell viability (HepG2 [12]; 10 nM) [%] | cell viability (HepG2 [12]; 100 nM) [%] | cell viability (HepG2 [12]; 1000 nM) [%] | cell viability (HepG2 [12]; 10000 nM) [%] | cell viability (Vero E6 [13]; 1 nM) [%] | cell viability (Vero E6 [13]; 10 nM) [%] | cell viability (Vero E6 [13]; 100 nM) [%] | cell viability (Vero E6 [13]; 1000 nM) [%] | cell viability (Vero E6 [13]; 10000 nM) [%] | cell viability (U2OS [14]; 1 nM) [%] | cell viability (U2OS [14]; 10 nM) [%] | cell viability (U2OS [14]; 100 nM) [%] | cell viability (U2OS [14]; 1000 nM) [%] | cell viability (U2OS [14]; 10000 nM) [%] | cell viability (Calu-3 [15]; 1 nM) [%] | cell viability (Calu-3 [15]; 10 nM) [%] | cell viability (Calu-3 [15]; 100 nM) [%] | cell viability (Calu-3 [15]; 1000 nM) [%] | cell viability (Calu-3 [15]; 10000 nM) [%]
CCNC1=Nc2ccc(Cl)cc2C(C)(c2ccccc2)O1 (stereo not given) [etifoxine] | > 10 | > 10 | > 10 | > 10 | > 10 | 0 | 0 | 0 | 0 | 0 | 90.1 | 102 | 96.1 | 92.2 | 97.3 | 95.7 | 100 | 101 | 107 | 95.3 | 94.8 | 98.1 | 95.5 | 99.3 | 112 | 92.1 | 96.9 | 99.8 | 98.3 | 98 | 94.4 | 97.2 | 102 | 102 | 90.7
OC[C@H]1NCC[C@@H](O)[C@@H]1O [fagomine] | > 10 | > 10 | > 10 | > 10 | > 10 | 0.3 | 0 | 0 | 0 | 0 | 89 | 91.9 | 93.8 | 87.2 | 87.9 | 98.9 | 97.4 | 93.3 | 90.2 | 94.6 | 95.6 | 93.5 | 93.1 | 94.5 | 92.7 | 97.9 | 100 | 93.8 | 97.1 | 94.8 | 111 | 103 | 97 | 104 | 99.8
NC(N)=Nc1nc(CSCC/C(N)=N/S(N)(=O)=O)cs1 [famotidine] | > 10 | > 10 | > 10 | > 10 | > 10 | 0 | 0 | 0 | 0 | 0 | 107 | 106 | 108 | 97.2 | 109 | 106 | 102 | 90.4 | 97.5 | 93.4 | 113 | 106 | 89.2 | 101 | 94.3 | 94.3 | 95.4 | 99.6 | 95 | 99.4 | 107 | 91.5 | 113 | 105 | 97.7
NC(=O)OCC(COC(N)=O)c1ccccc1 [felbamate] | > 10 | > 10 | > 10 | > 10 | > 10 | 0 | 0 | 0 | 0 | 0 | 92.9 | 97.2 | 95.9 | 99.1 | 97.1 | 96.5 | 94.7 | 102 | 106 | 98.5 | 87.8 | 89.8 | 99.6 | 90.3 | 104 | 97.8 | 102 | 97.6 | 107 | 104 | 91 | 95.8 | 91.5 | 123 | 98.1
O=C(CCCl)NCCc1ccccc1 [fenaclon] | > 10 | > 10 | > 10 | > 10 | > 10 | 0 | 0 | 0 | 0 | 0 | 81.8 | 126 | 93.7 | 84.5 | 109 | 104 | 111 | 99.3 | 119 | 96.2 | 104 | 105 | 100 | 103 | 91.3 | 101 | 96.9 | 100 | 92.6 | 103 | 105 | 99.1 | 97.4 | 96 | 88.3
O=C(COc1ccc(Cl)cc1)N1CCN(Cc2ccc3c(c2)OCO3)CC1 [fipexide] | > 10 | > 10 | > 10 | > 10 | > 10 | 0 | 0 | 0 | 0 | 0 | 98.8 | 90.1 | 93.5 | 93.4 | 88.4 | 83.9 | 90.8 | 86.6 | 93.8 | 102 | 97.6 | 99.9 | 101 | 101 | 97.6 | 102 | 100 | 101 | 95.2 | 96.2 | 101 | 93.1 | 103 | 93.5 | 110
CCC1=C(C)CN(C(=O)NCCc2ccc(S(=O)(=O)NC(=O)N[C@H]3CC[C@H](C)CC3)cc2)C1=O [glimepiride] | > 10 | > 10 | > 10 | > 10 | > 10 | 1.8 | 0 | 0 | 0 | 0 | 87.2 | 94.3 | 98.9 | 91.4 | 76.2 | 83.1 | 90.7 | 104 | 98.7 | 104 | 111 | 110 | 105 | 91.9 | 95.3 | 98.9 | 99.2 | 97.7 | 99.8 | 92.1 | 98.6 | 104 | 91.7 | 104 | 98.6
